The structures appear in SMILES notation.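 These data come from cells grown in 96-well plates and exposed to compound for 48 hours at five concentrations. GI50 marks 50% less growth. TGI marks complete inhibition of growth.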

Assay in all cases: inhibition of tumour cell growth, NCI panel, 48 h
For test [1], the system named is SW-620 colon.
Test [2] has as its system RPMI-8226 leukemia.
For test [3], the system named is CCRF-CEM leukemia.
Test [4] has as its system HCT-15 colon.
Test [5] has as its system SF-268 CNS.
Test [6] has as its system SNB-75 CNS.
Test [7] deals with NCI/ADR-RES ovarian.
Test [8] relates to HS 578T breast.
Test [9] relates to NCI-H522 lung.
The test system of test [10] is ACHN renal.

Consider `CSC(SC)=C(C#N)C(=O)Nc1ccc(Cl)cc1`, for which the TGI is more than 100 µM in test [1]; more than 100 µM in test [2]; 74.9 µM in [3]; more than 100 µM in test [4]; more than 100 µM in test [5]; more than 100 µM in test [6]. In addition, the TGI in test [7] and in test [8] was more than 100 µM in each case.
For the compound `O=C1CC2(CCN(Cc3ccccc3)CC2)C(=O)N1N1CCCCC1`, the TGI in [1], in test [2], in test [4], in [5], in [9] and in [6] was more than 100 µM throughout. In addition, the TGI in test [7], in test [8] and in test [10] was more than 100 µM in each case.
For the compound `Cc1ccc(NC(c2ccccc2)P(=O)(c2ccccc2)c2ccccc2)cc1` (stereo unspecified), the TGI is more than 100 µM in test [1]; more than 100 µM in test [2]; more than 100 µM in [4]; more than 100 µM in test [5]; more than 100 µM in test [9]; 41.3 µM in test [6]. Moreover, the TGI in test [7], in test [8] and in test [10] was more than 100 µM throughout.
Regarding `O=C(O)COc1c(Cl)cc(Cl)c(C(c2c(Cl)cc(Cl)c(OCC(=O)O)c2Cl)C(Cl)(Cl)Cl)c1Cl`, the TGI in test [1] was more than 100 µM; in test [2] it was 85.9 µM; in test [4], 76 µM; in [5], more than 100 µM; in [9], more than 100 µM; in test [6], 93.5 µM. The TGI in test [7], in test [8] and in [10] was more than 100 µM each time.
With `O=C1c2cccc3cc([N+](=O)[O-])cc(c23)C(=O)N1c1ccc(OCCN2CCCC2)cc1`, the TGI in [1] is 95.2 µM; in test [3] it was 73.5 µM; in test [4], 44.5 µM; in test [5] it was more than 100 µM; in test [9], 31.7 µM; in test [6] it was 67.1 µM. Also, the TGI in test [7] was more than 100 µM; in [8], more than 100 µM; in [10], 28.1 µM.
Regarding `O=C(Cn1c(=O)oc2ccccc21)N(c1ccccc1)c1ccccc1`, the TGI in [1] is more than 100 µM; in [2], more than 100 µM; in test [3], more than 100 µM; in [4], more than 100 µM; in [5], more than 100 µM; in [6], 71 µM. The TGI in [7], in test [8] and in test [10] was more than 100 µM in each case.
On to `COC(=O)[C@@H]1CN(C(=O)Cc2ccccc2)C(=O)N1`, for which the TGI in test [1], in test [2], in test [3], in test [5], in test [9] and in [6] was more than 100 µM throughout. Also, the TGI in [7], in test [8] and in test [10] was more than 100 µM in each case.
Consider `c1c2c(cc3c1OCO3)-c1ncc3cc4c(cc3c1C2)OCO4`, for which the GI50 in test [1] was 136 nM; in test [2], 108 nM; in test [3], 17.6 µM; in test [4], less than 10 nM; in test [5], 112 nM; in test [7], 50.8 nM. Also, the GI50 in test [10] is 33.7 nM. The TGI in test [1] was more than 100 µM; in [2], more than 76.9 µM; in test [3], more than 100 µM; in [4], 24.8 µM; in test [5], 7.79 µM; in test [9] it was 72.2 µM. The TGI in test [7] is 52.4 µM; in test [8] it was more than 94.8 µM; in test [10], 6.33 µM.
Take `N#CCCN(C(=O)Nc1ccc(NC(=O)N(CCC#N)c2ccccc2)cc1)c1ccccc1`: the TGI in [1], in test [2], in test [4], in test [5], in [9] and in test [6] was more than 100 µM throughout. Also, the TGI in test [7], in [8] and in test [10] was more than 100 µM in each case.
With `CC1(C)OCC(/C=C\C(O)CC2(C)OCCO2)CO1` (stereo unspecified), the TGI in test [1], in test [2], in test [4], in test [5], in test [9] and in test [6] was more than 100 µM in each case. Moreover, the TGI in test [7], in test [8] and in [10] was more than 100 µM throughout.
Regarding `COc1ccc(Cl)cc1NC(=O)O/N=C(\Cl)C(C)C`, the TGI in test [2] is 4.61 µM; in test [3], more than 29.7 µM; in test [5], 47.4 µM; in test [9], 2.46 µM; in test [6], 38.7 µM; in test [7], 16.6 µM. In addition, the TGI in [8] turned out to be 69.2 µM; in test [10], 4.21 µM.
In the case of `CCOC(=O)c1c(N2CCN(C)CC2)[nH]c(=O)c(C(c2c(Cl)cccc2Cl)c2c(O)c(C(=O)OCC)c(N3CCN(C)CC3)[nH]c2=O)c1O`, the TGI is 68.2 µM in test [1]; more than 100 µM in test [2]; more than 100 µM in test [3]; 97.7 µM in test [4]; 56.5 µM in test [5]; 42 µM in [9]. Besides, the TGI in test [7] is more than 100 µM; in test [8], 75 µM; in test [10] it was 42.8 µM.
Consider `C=CCCCCCCCCCOC1C=CC(O)C(CO)O1` (stereo unspecified), for which the TGI is more than 100 µM in [1]; 50.4 µM in test [2]; more than 100 µM in [4]; more than 100 µM in test [5]; more than 100 µM in test [9]; more than 100 µM in test [6]. Further, the TGI in test [7], in test [8] and in test [10] was more than 100 µM throughout.
For the compound `C[N+]1(CC[N+]2(C)CCCC2c2cccnc2)CCCC1c1cccnc1` (stereo unspecified), the TGI in test [1], in test [2], in test [4], in [5], in test [9] and in test [6] was more than 100 µM in each case. Also, the TGI in [7], in [8] and in test [10] was more than 100 µM throughout.

For the origin of these results see PubChem BioAssay (NCI).
